Experimental data reported in US20130123355A1, “Fatty acids and metal ions compositions and uses thereof” (priority 2011, published 2013).

What was measured:
rats = test: T-maze test (forced alternation or left-right discrimination task); format: in vivo; conditions: diet
Description: Mg-DHA composition is provided as supplement in standard rat feed. On an average, rats consume about 50 mg/Kg/day of elemental Mg, on a feeding schedule so as to maintain 85% of its free-feeding weight. In the control group, rats are fed either DHA or magnesium citrate (Mg Citrate) supplemented diet on schedule similar to test group. After habituation to the apparatus and pre-training, each rat undergoes 4 trials of standard T-maze test (Shoji et al, J. Vis. Exp. (60), e3300, DOI: 10.3791/3300 (2012)) on day 1 or day 21 of Mg-DHA, Mg Citrate, or DHA feeding. Rats are subject to either forced alternation task or left-right discrimination task. Behaviors in the T-maze apparatus is recorded and statistically analyzed by two way repeated measures analysis of variance. […] In another set of experiments, rats fed with DHA, Mg Citrate, or Mg-DHA for 21 days are subject to novel-object-location (NOL) tests.
Mg-DHA composition is provided as supplement in standard rat feed. On an average, rats consume about 50 mg/Kg/day of elemental Mg, on a feeding schedule so as to maintain 85% of its free-feeding weight. In the control group, rats are fed DHA-LysoPC or Mg Citrate supplemented diet on schedule similar to test group. After habituation to the apparatus and pre-training, each rat undergoes 4 trials of standard T-maze test (Shoji et al, J. Vis. Exp. (60), e3300, DOI: 10.3791/3300 (2012)) on day 1 or day 21 of Mg-DHA-LysoPC, Mg Citrate or DHA-LysoPC feeding. Rats are subjected to either forced alternation task or left-right discrimination task. Behaviors in the T-maze apparatus is recorded and statistically analyzed by two way repeated measures analysis of variance. […] In another set of experiments, rats fed with Mg Citrate, DHA-LysoPC, or Mg-DHA-LysoPC for 21 days are subjected to novel-object-location (NOL) tests.
Mg-EPA composition is provided as supplement in standard rat feed. On an average, rats consume about 50 mg/Kg/day of elemental Mg, on a feeding schedule so as to maintain 85% of its free-feeding weight. In the control group, rats are fed EPA or Mg Citrate supplemented diet on scheduled similar to test group. After habituation to the apparatus and pre-training, each rat undergoes 4 trials of standard T-maze test (Shoji et al, J. Vis. Exp. (60), e3300, DOI: 10.3791/3300 (2012)) on day 1 or day 21 of Mg-EPA, Mg Citrate, or EPA feeding. Rats are subjected to either forced alternation task or left-right discrimination task. Behaviors in the T-maze apparatus is recorded and statistically analyzed by two way repeated measures analysis of variance. […]
Zn-DHA composition is provided as supplement in standard rat feed. […] Behaviors in the T-maze apparatus is recorded and statistically analyzed by two way repeated measures analysis of variance. […]

[1] = Zn levels in cerebrospinal fluid of rats fed Zn compositions; format: in vivo, Sprague-Dawley rats; conditions: oral gavage, about 1 mg elemental zinc per kg per day for 3 weeks, compared with Zinc gluconate
Description: Sprague-Dawley rats are fed various […] compositions by oral gavage so as to provide about 1 mg elemental zinc per kg per day for 3 weeks. The zinc compositions include Zn-DHA, Zn-DHA-LysoPC and Zn-EPA. Control rats were administered equivalent molar amount of zinc gluconate. Cerebrospinal fluid is collected at the end of the treatment, and zinc is measured by atomic absorption spectroscopy.

[2] = about 50 mg/Kg/day elemental Mg, day 1 or day 21, compared with the fatty acid alone or Mg Citrate
[3] = about 1 mg/kg body weight/day elemental Zn, day 1 or day 21, compared with the fatty acid alone or zinc gluconate

| Structure (SMILES) | working and reference memory (rats; [2]) | CSF levels of Zn [1] | working and reference memory (rats; [3]) |
| --- | --- | --- | --- |
| CC/C=C\C/C=C\C/C=C\C/C=C\C/C=C\C/C=C\CCC(=O)[O-].CC/C=C\C/C=C\C/C=C\C/C=C\C/C=C\C/C=C\CCC(=O)[O-].[Mg+2] [Mg-DHA] | statistically significant increase | – | – |
| CC/C=C\C/C=C\C/C=C\C/C=C\C/C=C\CCCC(=O)[O-].CC/C=C\C/C=C\C/C=C\C/C=C\C/C=C\CCCC(=O)[O-].[Mg+2] [Mg-EPA] | statistically significant increase | – | – |
| CC/C=C\C/C=C\C/C=C\C/C=C\C/C=C\C/C=C\CCC(=O)[O-].CC/C=C\C/C=C\C/C=C\C/C=C\C/C=C\C/C=C\CCC(=O)[O-].[Zn+2] [Zn-DHA] | – | higher | statistically significant increase |
| CC/C=C\C/C=C\C/C=C\C/C=C\C/C=C\CCCC(=O)[O-].CC/C=C\C/C=C\C/C=C\C/C=C\C/C=C\CCCC(=O)[O-].[Zn+2] [Zn-EPA] | – | higher | statistically significant increase |
